In brackets after ≈: the same amount, converted by molar mass.
Assays:
[1] = Solubility of the compound in aqueous medium at pH 7; format: physicochemical
[2] = Intrinsic clearance in rat liver microsomes assessed per mg protein; format: ADME, microsome; conditions: read-out: CLH
[3] = Unbound plasma concentration in Wistar rat at 100 mg/kg, po measured after 1 hr; format: ADME, organism-based; conditions: in vivo
[4] = Drug level in Wistar rat brain at 100 mg/kg, po measured after 1 hr; format: ADME, organism-based; conditions: read-out: Drug uptake
[5] = Plasma concentration in Wistar rat at 100 mg/kg, po measured after 1 hr; format: ADME, organism-based

solubility ([1]; buffer) | microsomal CLint [2] [µL/min/mg] | Cp(f) [3] [nM] | concentration at 1 h [4] [nM] | solubility ([1]; aqueous medium, read-out: solubility) [µg/mL] | concentration at 1 h [5] [nM] | SMILES
Soluble | – | – | – | – | – | CCN(CC)CCc1c(C(=O)NCc2ccccc2OCC(F)(F)F)nn(-c2ccccc2)c1-c1ccccc1
Soluble | – | – | – | – | – | O=C(NCc1ccccc1OCC(F)(F)F)c1nn(-c2ccccc2)c(-c2ccccc2)c1CCNC1CC1
– | 377 | 4.9 | 80 | 429 (≈ 821 µM) | 810 | CCNCCc1c(C(=O)NCc2ccccc2OCC(F)(F)F)nn(-c2ccccc2)c1-c1ccccc1
